Values after ≈ are worked out from the molar mass of the structure shown.
Columns and labels:
Format in all cases: cell-based
Aspergillus Niger 16404 = assay: Broth microdilution MIC (M38-A), filamentous fungi, strain I; conditions: for MIC: Aspergillus niger; for Resistance or sensitivity of the strain to the agent (in words): clinical isolate strain I
Method: (§1) For the experiments of the present invention, the dermatophyte-type fungi strains that were obtained from clinical isolates and laboratory isolates, as described in Table 2 as follows, were used:
(§2) The fungal strains were grown on agar potato medium in a sloping chute at a temperature of 30° C. for a period of 7 to 15 days.
(§3) For the experiments, the compound 1-[2-(2,4-dichlorophenyl)-2-{[4-(trifluoromethyl)benzyl]oxy}ethyl]-1H-imidazole (BL-123) in the form of its nitrate salt and miconazole nitrate were used. Both compounds were dissolved in dimethyl sulfoxide (DMSO) to match the final concentration of the compound equal to or less than 1%.
(§4) The methodology used to test the sensitivity of the agent was of broth microdilution according to the method described in Standard M38-A (Reference method for broth dilution tests for determining the sensitivity to antifungal therapy for filamentous fungi; NCCLS, volume 22 No. 16, USA, 2008) as follows.
(§5) The fungus was cultivated pursuant to item 4.1. To the tubes wherein the fungi were grown, 5 mL of saline solution were added in order to extract the fungi from the agar surface. Then, this homogeneous suspension was transferred to a new tube and the colony-forming units (CFUs) were quantified according to counting methods: (i) in Sabouraud dextrose agar plates and (ii) in a Neubauer chamber.
(§6) Then, the fungi strains listed in Table 2 were inoculated in duplicate in a 96-well plate. There were used inocula of from 2 to 6×10^3 CFU/mL of fungi, per well, in a total volume of 0.2 mL of RPMI-1640 (containing L-glutamine and without bicarbonate) buffered at pH 7.0 with MOPS (acid 3-(N-morpholine) 15 propanesulfonic). The procedure was performed in a laminar flow.
(§7) The compounds to be tested were added in a serial dilution, in duplicate, in final concentrations of 16 μg/mL; 8 μg/mL; 4 μg/mL; 2 μg/mL; 1 μg/mL; 0.5 μg/mL; 0.25 μg/mL; 0.125 μg/mL; 0.0625 μg/mL; or 0.03125 μg/mL in culture medium present in each well.
(§8) The incubation of fungi with these compounds was performed by 4, 5, 6 and 7 days at temperatures from 30 to 35° C.
(§9) The fungi quantification was carried out with the growth of fungi in each well being compared to the growth occurred in the negative control by means of a mirror reading. The negative control is represented by fungi grown in culture medium in the absence of the tested compounds. The methodology of this comparison is the numerical rating to which the microdilution well was submitted. In this methodology, value 4 corresponds to no reduction of growth, value 3 corresponds to a slight reduction in growth or approximately 75% of the growth of the negative control, value 2 corresponds to a standout reduction in growth or approximately 50% of growth of negative control; value 1 corresponds to a slight growth or approximately 25% of the growth of the negative control, and value 0 corresponds to optically clear or absence of growth.
(§10) In this experiment, the minimum inhibitory concentration (MIC) is considered as the lowest concentration of the agent capable of inhibiting at least 80% of the growth of colony-forming units (CFUs).

[1] = system: Trichophyton rubrum 28188; assay: Broth microdilution MIC (M38-A), filamentous fungi, strain V
Method: as §1, §2, §3, §4, §5, §6, §7, §8
(§11) The fungi quantification was carried out with the growth of fungi in each well being compared to the growth occurred in the negative control by means of a mirror reading. The negative control is represented by fungi grown in culture medium in the absence of the tested compounds. The methodology of this comparison is the numerical rating to which the microdilution well was submitted. […]

[2] = system: Microsporum gypseum 40051; assay: Broth microdilution MIC (M38-A), filamentous fungi, strain XII; conditions: Nannizzia gypsea
Method: as §1, §2, §3, §4, §5, §6, §7, §8, §11

Candida albicans 10231 = assay: Broth microdilution MIC (M27-A2), yeast, strain XIV; conditions: Candida albicans; strain XIV 10231, 48 hours incubation; read-out: MIC
Method: For the experiments of the present invention (i) yeast strains obtained from clinical isolates and laboratory isolates, and (ii) bacterial strains obtained from laboratory isolates were used, as described in Table 5 as follows. The yeast strains were grown in culture medium Sabouraud Dextrose Agar maintained at a temperature of 35° C. for 48 hours. […] The compounds were dissolved in dimethyl sulfoxide (DMSO) to match the final concentration of the compound equal to or less than 1%. The methodology used to test the sensitivity of the agent was broth microdilution according to the method described in Standard M27-A2 (Reference method for broth dilution tests to determine the sensitivity of yeasts to antifungal therapy-second edition, NCCLS, volume 22 number 15, USA, 2002) as follows. […] Then the suspensions were diluted in culture medium RPMI-1640 (buffered with MOPS 0.165 mol/l) at a final concentration of 50 to 2500 CFU/mL. The diluted suspensions were inoculated in duplicate in a 96-well plate. The procedure was performed in a laminar flow. […] The incubation of fungi with these compounds was carried out for 48 hours at temperature of 30 to 35° C. […] We have agreed in this experiment that the turbid medium is the result of microbial growth and the presence of deposit and a clear medium represents the absence of microbial growth. The minimum inhibitory concentration (MIC) was defined as the lowest tested drug concentration that prevents any degree of […] growth.

Microsporum gypseum 24 = assay: Broth microdilution MIC (M38-A), filamentous fungi, strain III; conditions: Nannizzia gypsea
Method: as §1, §2, §3, §4, §5, §6, §7, §8, §11

[3] = system: Trichophyton verrucosum 381; assay: Broth microdilution MIC (M38-A), filamentous fungi, strain IV
Method: as §1, §2, §3, §4, §5, §6, §7, §8, §11

Trichophyton rubrum 455 = assay: Broth microdilution MIC (M38-A), filamentous fungi, strain VIII; conditions: for MIC: Trichophyton rubrum; for Resistance or sensitivity of the strain to the agent (in words): clinical isolate strain VIII
Method: as §1, §2, §3, §4, §5, §6, §7, §8, §9, §10

[4] = system: Candida parapsilosis 22019; assay: Broth microdilution MIC (M38-A), filamentous fungi test, strain IX; conditions: 96 h; strain IX 22019, reading Day 4, average of four experiments
Method: as §1, §2, §3, §4
The fungus was cultivated pursuant to item 4.1. […] Then, this homogeneous suspension was transferred to a new tube and the colony-forming units (CFUs) were quantified according to counting methods: (i) in Sabouraud dextrose agar plates and (ii) in a Neubauer chamber. […]
The fungi quantification was carried out with the growth of fungi in each well being compared to the growth occurred in the negative control by means of a mirror reading. […]

[5] = system: Trichophyton rubrum 40005; assay: Broth microdilution MIC (M38-A), filamentous fungi, strain XI
Method: as §1, §2, §3, §4, §5, §6, §7, §8, §11

[6] = system: Trichophyton mentagrophytes 2; assay: Broth microdilution MIC (M38-A), filamentous fungi, strain II
Method: as §1, §2, §3, §4, §5, §6, §7, §8, §11

[7] = NIGER16404, 96 h, strain I 16404, reading Day 4, average of four experiments, >=80% growth inhibition
[8] = NIGER16404, 168 h, strain I 16404, reading Day 7, average of four experiments
[9] = 96 h, strain V 28188, reading Day 4, average of four experiments
[10] = 168 h, strain V 28188, reading Day 7, average of four experiments
[11] = 96 h, strain XII 40051, reading Day 4, average of four experiments
[12] = 168 h, strain XII 40051, reading Day 7, average of four experiments
[13] = 96 h, strain III 24, reading Day 4, average of four experiments
[14] = 168 h, strain III 24, reading Day 7, average of four experiments
[15] = 96 h, strain IV 381, reading Day 4, average of four experiments
[16] = 168 h, strain IV 381, reading Day 7, average of four experiments
[17] = 96 h, strain VIII 455, reading Day 4, average of four experiments
[18] = 168 h, strain VIII 455, reading Day 7, average of four experiments
[19] = 96 h, strain XI 40005, reading Day 4, average of four experiments
[20] = 168 h, strain XI 40005, reading Day 7, average of four experiments
[21] = 96 h, strain II 2, reading Day 4, average of four experiments
[22] = 168 h, strain II 2, reading Day 7, average of four experiments

FC(F)(F)c1ccc(COC(Cn2ccnc2)c2ccc(Cl)cc2Cl)cc1 (stereo not shown) [BL-123, 1-[2-(2,4-dichlorophenyl)-2-{[4-(trifluoromethyl)benzyl]oxy}ethyl]-1H-imidazole] was tested, and the MIC (Aspergillus Niger 16404; [7]) was 8 µg/mL (≈ 19.3 µM), the MIC (Aspergillus Niger 16404; [8]) was 8 µg/mL (≈ 19.3 µM) and the “Resistance or sensitivity of the strain to the agent (in words)” value (“Resistance or sensitivity of the strain” below) (Aspergillus Niger 16404) was “sensitive”. For the same compound, the MIC [1, 9] was 0.03 µg/mL (≈ 0.0722 µM), the MIC [1, 10] was 0.03 µg/mL (≈ 0.0722 µM) and the MIC [2, 11] was 0.03 µg/mL (≈ 0.0722 µM). For the same compound, the MIC [2, 12] was 0.03 µg/mL (≈ 0.0722 µM), the MIC (Candida albicans 10231) was 8 µg/mL (≈ 19.3 µM) and the MIC (Microsporum gypseum 24; [13]) was 0.25 µg/mL (≈ 0.602 µM). The MIC (Microsporum gypseum 24; [14]) was 0.25 µg/mL (≈ 0.602 µM), the MIC [3, 15] was over 16 µg/mL and the MIC [3, 16] was over 16 µg/mL. The MIC (Trichophyton rubrum 455; [17]) was 4 µg/mL (≈ 9.63 µM), the MIC (Trichophyton rubrum 455; [18]) was 8 µg/mL (≈ 19.3 µM) and the “Resistance or sensitivity of the strain” value (Trichophyton rubrum 455) was “sensitive”. For the same compound, the MIC [4] was 2 µg/mL (≈ 4.82 µM), the MIC [5, 19] was 0.25 µg/mL (≈ 0.602 µM) and the MIC [5, 20] was 0.5 µg/mL (≈ 1.2 µM). It also gave an MIC [6, 21] of 4 µg/mL (≈ 9.63 µM) and an MIC [6, 22] of 4 µg/mL (≈ 9.63 µM).
Clc1ccc(COC(Cn2ccnc2)c2ccc(Cl)cc2Cl)c(Cl)c1 (stereo not shown) [Miconazole, miconazole, reference compound] was tested, and the MIC (Aspergillus Niger 16404; [7]) was over 16 µg/mL, the MIC (Aspergillus Niger 16404; [8]) was over 16 µg/mL and the “Resistance or sensitivity of the strain” value (Aspergillus Niger 16404) was “resistant”. For the same compound, the MIC [1, 9] was 0.03 µg/mL (≈ 0.0721 µM), the MIC [1, 10] was 0.06 µg/mL (≈ 0.144 µM) and the MIC [2, 11] was 0.03 µg/mL (≈ 0.0721 µM). It also gave an MIC [2, 12] of 0.06 µg/mL (≈ 0.144 µM), an MIC (Candida albicans 10231) of 4 µg/mL (≈ 9.61 µM) and an MIC (Microsporum gypseum 24; [13]) of 0.05 µg/mL (≈ 0.12 µM). The MIC (Microsporum gypseum 24; [14]) was 0.05 µg/mL (≈ 0.12 µM), the MIC [3, 15] was over 16 µg/mL and the MIC [3, 16] was over 16 µg/mL. For the same compound, the MIC (Trichophyton rubrum 455; [17]) was over 16 µg/mL, the MIC (Trichophyton rubrum 455; [18]) was over 16 µg/mL and the “Resistance or sensitivity of the strain” value (Trichophyton rubrum 455) was “resistant”. The MIC [4] was 1 µg/mL (≈ 2.4 µM), the MIC [5, 19] was 0.5 µg/mL (≈ 1.2 µM) and the MIC [5, 20] was 1 µg/mL (≈ 2.4 µM). It also gave an MIC [6, 21] of 1 µg/mL (≈ 2.4 µM) and an MIC [6, 22] of 1 µg/mL (≈ 2.4 µM).

Reference: patent US8975289B2, “Benzyl aralkyl ether compounds, method for preparing same, intermediate compounds, use of said compounds, method for treatment and/or prevention, pharmaceutical composition and medicament containing same” (priority 2009, dated 2015)
